In patent US4055640A, “Compositions and methods for controlling the growth of bacteria, fungi and algae using certain derivatives of N-(2,2-dichlorovinyl)salicylamides” (Nippon Kayaku Co., Ltd., priority 1975, dated 1977):
In brackets after ≈: the same amount, converted by molar mass. Counter-ions that a name gives are not always drawn.

Columns and labels:
fungi = assay: Degree of propagation on slime test boards (Example 27); format: cell-based; conditions: same method, shaking culture for 2 days
Summary of the method: (§1)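 Wood slime test boards were soaked in Waxman's liquid medium holding 0.02 part active compound (as 10% water-soluble concentrate) per 100 parts medium. Medium was inoculated with bacteria from a circular water system, fungi or green algae and shake-cultured 2 days at 27°-34° C. Propagation on the boards was scored with symbols.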

[1] = tested on: bacteria gathered from circular water system; assay: as above; format: cell-based; conditions: shaking culture for 2 days
Summary of the method: as §1

green algae = assay: as above; format: cell-based; conditions: same method, shaking culture for 2 days
Summary of the method: as §1

[2] = tested on: Xanthomonas citri (citrus canker); assay: Exterminating test on citrus canker (Experimental Example 6); format: in vivo; conditions: Xanthomonas citri, 336 h, read-out: Effect Index, 1,000 ppm, 2 weeks after inoculation
Summary of the method: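 Four-year-old potted summer orange seedlings sprayed with diluted 80% wettable powder, then needle-inoculated on leaves with Xanthomonas citri and held 24 h moist at 25 °C before greenhouse. Disease attack scored 2 weeks post-inoculation and expressed as an Effect Index.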

[3] = tested on: Fusarium wilt of cucumber; assay: Exterminating test on Fusarium wilt of cucumber (Experimental Example 4); format: in vivo, Fusarium oxysporum f, cucumerinum; conditions: Fusarium, soil, 336 h, 500 ppm, soil drench 100 ml per pot, two weeks; read-out: Percentage of healthy seedlings
Summary of the method: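 Pots of steam-sterilized soil mixed with 20 g infested soil, sown with 18 cucumber seeds (Tokiwazibai), drenched with 100 ml aqueous suspension of 80% wettable powder. Benlate 50% wettable powder run as control. Disease scored two weeks after planting as percentage of healthy seedlings.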

Staphylococcus aureus = assay: Growth inhibition zones around treated clothes (Example 16); format: cell-based
Description: (§2) The emulsifiable concentrate which was prepared by Example 10 and which contained 10% of Compound No. 1 was entered to three vessels. These emulsifiable concentrates were diluted with water 500 times, 1000 times and 2000 times respectively. Emulsions were obtained. Each of silk, cotton and vinylon clothes was dipped into the three different concentrations of emulsions for 3 minutes and dried for 24 hours at room temperature. The clothes dreid were cut into a square of which a side was 1 cm long.
(§3) Test bacteria and fungi were inoculated on the whole surfaces of the plates of potato-dextrose agar medium. The square clothes were placed on the plates of agar culture medium of potato. The inoculated bacteria and fungi were incubated at 28° C for 4 days. The width of zones in which the growth of the test bateria and fungi was inhibited in the environment of the clothes was measured.

Bacillus subtilis = assay: as above; format: cell-based
Description: as §2, §3

Penicillium citrenum = assay: as above; format: cell-based
Description: as §2, §3

Aspergillus niger = assay: as above; format: cell-based
Description: as §2, §3

Chaetomium globosum = assay: Minimum inhibitory concentration, dilution methods (Example 14); format: cell-based
Source text: (§4) Bacteriocidal activity and fungicidal activity of the active compounds of the present invention were examined by potato-dextrose agar dilution method, [2] waxman's liquid medium dilution method or [3] glucose bouillon medium dilution method. The results are shown in Table 4 below as the minimum inhibitory concentration (the minimum concentration of active compound found to produce 100% control of the test bacteria and fungi).

Pseudomonas fluorescens = assay: as above; format: cell-based
Source text: as §4

Geotrichum candium = assay: as above; format: cell-based
Source text: as §4

[4] = acute oral toxicity against a mouse; conditions: in vivo
[5] = tested on: Bacteria, fungi and slime; assay: Inhibition of bacteria, fungi and slime in use (Example 13); conditions: water soluble concentrate; 10-20 ppm in water, 0.01%-0.1% in pastes
Description: Before application, the concentrate was diluted 500-1000 times with water and sprayed on the inside of cotes to prevent the growth of bacterial and fungi.
The solution was added to water in circular water systems to inhibit the growth of slime. The concentration of Compound No. 20 in the water was 10-20 ppm.
An amount from 0.01%-0.1% of Compound No. 20 as the solution was added to pastes or binding agents to prevent rottenness of them.

[6] = (1) potato-dextrose agar dilution method
[7] = (2) waxman's liquid medium dilution method

CC(=O)Oc1ccccc1C(=O)NC=C(Cl)Cl [Compound No. 6, O-acetyl-N-(2,2-dichlorovinyl) salicylamide]
Degree of propagation (fungi): -
Degree of propagation [1]: -
Degree of propagation (green algae): -
pest or weed control at 1000 ppm [2]: 96.1%
pest or weed control at 500 ppm [3]: 83%

O=C(NC=C(Cl)Cl)c1ccccc1O [Compound No. 1, N-(β,β-dichlorovinyl) salicylamide]
width of growth inhibition zones (Staphylococcus aureus; Cotton, 0.005 %): 5 mm
width of growth inhibition zones (Staphylococcus aureus; Cotton, 0.01 %): 9 mm
width of growth inhibition zones (Staphylococcus aureus; Cotton, 0.02 %): 13 mm
width of growth inhibition zones (Staphylococcus aureus; Silk, 0.005 %): 5 mm
width of growth inhibition zones (Staphylococcus aureus; Silk, 0.01 %): 8 mm
width of growth inhibition zones (Staphylococcus aureus; Silk, 0.02 %): 12 mm
width of growth inhibition zones (Staphylococcus aureus; Vinylon, 0.005 %): 4 mm
width of growth inhibition zones (Staphylococcus aureus; Vinylon, 0.01 %): 7 mm
width of growth inhibition zones (Staphylococcus aureus; Vinylon, 0.02 %): 11 mm
width of growth inhibition zones (Bacillus subtilis; Cotton, 0.005 %): 3 mm
width of growth inhibition zones (Bacillus subtilis; Cotton, 0.01 %): 6 mm
width of growth inhibition zones (Bacillus subtilis; Cotton, 0.02 %): 10 mm
width of growth inhibition zones (Bacillus subtilis; Silk, 0.005 %): 3 mm
width of growth inhibition zones (Bacillus subtilis; Silk, 0.01 %): 6 mm
width of growth inhibition zones (Bacillus subtilis; Silk, 0.02 %): 10 mm
width of growth inhibition zones (Bacillus subtilis; Vinylon, 0.005 %): 2 mm
width of growth inhibition zones (Bacillus subtilis; Vinylon, 0.01 %): 5 mm
width of growth inhibition zones (Bacillus subtilis; Vinylon, 0.02 %): 9 mm
width of growth inhibition zones (Penicillium citrenum; Cotton, 0.005 %): 5 mm
width of growth inhibition zones (Penicillium citrenum; Cotton, 0.01 %): 7 mm
width of growth inhibition zones (Penicillium citrenum; Cotton, 0.02 %): 9 mm
width of growth inhibition zones (Penicillium citrenum; Silk, 0.005 %): 4 mm
width of growth inhibition zones (Penicillium citrenum; Silk, 0.01 %): 6 mm
width of growth inhibition zones (Penicillium citrenum; Silk, 0.02 %): 7 mm
width of growth inhibition zones (Penicillium citrenum; Vinylon, 0.005 %): 3 mm
width of growth inhibition zones (Penicillium citrenum; Vinylon, 0.01 %): 5 mm
width of growth inhibition zones (Penicillium citrenum; Vinylon, 0.02 %): 7 mm
width of growth inhibition zones (Aspergillus niger; Cotton, 0.005 %): 6 mm
width of growth inhibition zones (Aspergillus niger; Cotton, 0.01 %): 8 mm
width of growth inhibition zones (Aspergillus niger; Cotton, 0.02 %): 11 mm
width of growth inhibition zones (Aspergillus niger; Silk, 0.005 %): 5 mm
width of growth inhibition zones (Aspergillus niger; Silk, 0.01 %): 7 mm
width of growth inhibition zones (Aspergillus niger; Silk, 0.02 %): 8 mm
width of growth inhibition zones (Aspergillus niger; Vinylon, 0.005 %): 4 mm
width of growth inhibition zones (Aspergillus niger; Vinylon, 0.01 %): 6 mm
width of growth inhibition zones (Aspergillus niger; Vinylon, 0.02 %): 8 mm
MIC (Chaetomium globosum; [6]): 5 µg/mL (≈ 21.5 µM)
MIC (Chaetomium globosum; [7]): 10 µg/mL (≈ 43.1 µM)
minimum inhibitory concentration (Pseudomonas fluorescens; [6]): 40 mc g/ml
MIC (Pseudomonas fluorescens; Pseudomonas fluorescens, (2) waxman's liquid medium dilution method): 40 µg/mL (≈ 172 µM)
MIC (Geotrichum candium; [6]): 10 µg/mL (≈ 43.1 µM)
MIC (Geotrichum candium; [7]): 20 µg/mL (≈ 86.2 µM)
LD50 [4]: > 6000 mg/kg

O=C(NC=C(Cl)Cl)c1ccccc1O [Compound No. 20, sodium salt of N-(β,β-dichlorovinyl) salicylamide]
inhibition of bacteria, fungi and slime [5]: inhibited for a long time
